The target of one experiment is T1, human M4 receptor (Homo sapiens, UniProt P08173).
T1 construct: expressed in transfected cells
T1 sequence (P08173 1-479): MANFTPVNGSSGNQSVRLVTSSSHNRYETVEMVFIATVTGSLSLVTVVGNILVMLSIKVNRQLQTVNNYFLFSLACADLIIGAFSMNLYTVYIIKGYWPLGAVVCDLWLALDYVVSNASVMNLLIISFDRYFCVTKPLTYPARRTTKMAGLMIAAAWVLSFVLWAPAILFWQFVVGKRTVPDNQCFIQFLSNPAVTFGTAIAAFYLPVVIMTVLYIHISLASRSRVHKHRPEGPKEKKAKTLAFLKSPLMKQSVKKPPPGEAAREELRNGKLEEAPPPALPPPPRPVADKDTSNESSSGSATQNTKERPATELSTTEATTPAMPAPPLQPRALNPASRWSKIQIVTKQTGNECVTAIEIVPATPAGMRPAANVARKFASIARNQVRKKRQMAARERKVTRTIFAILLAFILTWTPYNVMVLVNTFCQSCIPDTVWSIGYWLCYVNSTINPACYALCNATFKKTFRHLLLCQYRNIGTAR
In words: M4 GTPγS PAM assay. The class given is biochemical. The settings on record: membranes of CHO-K1 cells stably expressing human M4; EC20 acetylcholine 40 nM; 35S-GTP. The method, then: The M4 GTPγS PAM method was used. Membranes were prepared for GTPgS binding assays from CHO-K1 cells stably expressing human M4 receptor. Briefly, cells were grown in 5-layer cell culture flasks. Cells were washed with 50 mL of PBS and then dissociated with 0.05% trypsin. Dissociated cells were then collected by centrifugation at 650×g for 8 minutes at 4° C. Pellets were washed again in PBS by centrifugation and resuspended in 30 mL of 20 mM HEPES, 10 mM EDTA, pH 7.4. After sitting on ice for 30 min, membranes were collected by centrifugation at 50000×g for 15′ at 4° C., resuspended in 30 mL of 20 mM HEPES, 0.1 mM EDTA, pH 7.4 and collected again by centrifugation. Pellets were then washed twice by centrifugation in 30 mL of 20 mM HEPES, pH 7.4, and stored at −80° C. until the day of the assay. On the day of the assay, pellets were thawed on ice and resuspended in 1 mL of 20 mM HEPES, pH 7.4, 10 mM MgCl2, 100 mM NaCl using dounce homogenization. Membrane protein concentration is determined by BCA protein assay (Promega, Madison, WI) according to Promega guidelines.
On the day of the assay, serial dilutions of test PAM compounds were brought up in assay buffer (20 mM HEPES, 10 mM MgCl2, 100 mM NaCl) at 4× final assay concentration. […] of membrane homogenates (containing […] of membrane protein) were prepared in assay buffer supplemented with GDP at 4× final assay concentration (final assay concentration of GDP is 5 μM for M2 and 0.1 μM for M4) and dispensed into 96 well polypropylene, U-bottom Greiner plates. […] of vehicle or test PAM compound at 4× of final assay concentration diluted in the assay buffer were added to membrane and plates are incubated for 10-15 minutes at room temperature with gentle shaking. Then, […] of EC20 acetylcholine in assay buffer at 4× final assay concentration was added to assay plates (EC20 final assay concentrations was 40 nM for human M4).
Plates were then incubated, with shaking, for an additional 10-15 minutes. […] of 0.4 nM 35S-GTP (Perkin Elmer, Waltham, MA) in assay buffer was added to assay mixtures. The binding reaction is left on the shaker for 1 hour at room temperature. Membranes in assay reactions were then transferred to GF/C filter plates (Unifilter, Perkin Elmer) and washed three times using a FilterMate Harvester (Perkin Elmer) with cold assay buffer containing no GDP. Filter plates were then dried at 40° C. overnight followed by the addition of […] of Beta Plate Scintillation liquid. Plates are top and bottom sealed before being read on TopCount scintillation counter (Perkin Elmer, Waltham, MA).

For a further experiment, the target named is T2, hM4 receptors (Homo sapiens, UniProt P08173).
T2 construct: expressed in transfected cells; host or cells: CHO cells
T2 sequence (P08173 1-479): T1 sequence (P08173 1-479)
Nature of the experiment: Human M4 PAM pERK assay. The format is cell-based. The settings on record: CHO cells expressing hM4; EC20 of acetylcholine (10 nM final); TR-FRET. The method, then: (§1) Chinese hamster ovary (CHO) cells expressing either hM4 or rM4 receptors were frozen in assay ready vials (5×10^6 cells/vial) after bulking-up in culture. The day before an assay, vial(s) were thawed and cells seeded in 384 well white proxiplates at 1000/well for hM4 cells and at 2000/well for rM4 cells, in 10 μL of growth media (Hams/F12 with glutamax and 10% FCS) and incubated overnight at 37° C./5% CO2.
(§2) On the following morning, the growth media was removed by ‘flicking out’ over a bin, patting the inverted plate onto tissue, and then replacing with 10 μL of wash media (Hams/F12 with glutamax and 8 mM HEPES, NB: serum free). Then, the wash media was removed in the same way and replaced with 8 μL/well of the serum free media. Plates were then re-incubated for a further 4 hours at 37° C./5% CO2.
(§3) Compounds for testing were solubilized to 10 mM in DMSO and compound addition plates, consisting of ten-point concentration response curves (CRC) in duplicate points (10 μM top concentration, 1/2 log dilution series), were prepared by acoustic dispensing and the compound management group.
(§4) After the 4-hour incubation in serum free media, a 4 μL aliquot of the 3× compound solution containing an EC20 of acetylcholine (10 nM final concentration) was added to the cell plate using a 384 well plate to plate transfer. Then, the plate lid was replaced, and the cells incubated for 5 mins at 37° C./5% CO2. Following this final incubation, all cellular processes were stopped by the addition of 4 μL/well of lysis and blocking buffer and plates were incubated for 30 minutes at RT on an orbital shaker (gentle setting). Then, a final addition of 4 μL/well of antibody detection mix, containing both the Europium-Cryptate (donor) and d2 (acceptor) tagged detection components, was added followed by a further 2-hour incubation at RT, and then the plate was read using a TR-FRET (time resolved fluorescence resonance energy transfer) based protocol.
Background: In TR-FRET formats the signal depends on donor and acceptor labels being close together.

The target in the next experiment is T3, rM4 receptors (Rattus norvegicus, UniProt P08485).
T3 construct: expressed in transfected cells; host or cells: CHO cells
T3 sequence (P08485 1-478): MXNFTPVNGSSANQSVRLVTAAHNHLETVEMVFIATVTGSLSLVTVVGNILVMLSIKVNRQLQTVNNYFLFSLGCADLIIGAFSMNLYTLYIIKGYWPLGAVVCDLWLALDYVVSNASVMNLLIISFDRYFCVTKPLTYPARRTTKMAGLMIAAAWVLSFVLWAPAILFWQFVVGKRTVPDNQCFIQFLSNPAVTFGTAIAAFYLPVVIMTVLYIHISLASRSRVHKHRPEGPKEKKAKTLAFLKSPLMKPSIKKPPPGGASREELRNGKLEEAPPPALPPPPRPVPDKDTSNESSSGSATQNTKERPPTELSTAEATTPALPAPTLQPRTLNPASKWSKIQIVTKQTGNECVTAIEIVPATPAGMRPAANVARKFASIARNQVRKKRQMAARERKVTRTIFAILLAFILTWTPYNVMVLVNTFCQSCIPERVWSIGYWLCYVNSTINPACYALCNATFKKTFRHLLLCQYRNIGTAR
Nature of the experiment: Rat M4 PAM pERK assay. The settings on record: CHO cells expressing rM4; EC20 of acetylcholine (10 nM final); TR-FRET. The format is cell-based. The method, then:
as §1, §2, §3, §4

Some results are limits rather than exact numbers.

Experimental findings from patent US20260209234A1, “SUBSTITUTED DIHYDROPYRROLO[3,4-D]PYRIMIDINE COMPOUNDS AND THEIR USE IN TREATING MEDICAL CONDITIONS” (Karuna Therapeutics, Inc., priority 2022, published 2026) are described below.

Broadly, the EC50 is the concentration that produces a half-maximal response. A low value points to higher potency in that assay.

With `COc1nc(C#N)nc2c1C(C)N(C(=O)CC1CN(c3cccc(C(F)(F)F)c3)C1)C2` (single isomer, unassigned) [Compound I-15, 4-Methoxy-5-methyl-6-(2-(1-(3-(trifluoromethyl)phenyl)azetidin-3-yl)acetyl)-6,7-dihydro-5H-pyrrolo[3,4-d]pyrimidine-2-carbonitrile], the EC50 at human M4 receptor, on hM4 receptors and at rM4 receptors was ≥ 2000 nM in each case.
`COc1nc(C#N)nc2c1C(C)N(C(=O)CC1CN(c3cccc(F)c3F)C1)C2` (single isomer, unassigned) [Compound I-19, 6-(2-(1-(2,3-Difluorophenyl)azetidin-3-yl)acetyl)-4-methoxy-5-methyl-6,7-dihydro-5H-pyrrolo[3,4-d]pyrimidine-2-carbonitrile]: the EC50 on human M4 receptor, on hM4 receptors and at rM4 receptors was 100 to 500 nM each time.
In the case of `COc1nc(C#N)nc2c1C(C)N(C(=O)CC1CN(c3cccc(F)c3F)C1)C2` (single isomer, unassigned) [Compound I-20, 6-(2-(1-(2,3-Difluorophenyl)azetidin-3-yl)acetyl)-4-methoxy-5-methyl-6,7-dihydro-5H-pyrrolo[3,4-d]pyrimidine-2-carbonitrile], the concentration for a half-maximal effect (EC50) at human M4 receptor, at hM4 receptors and at rM4 receptors was ≥ 2000 nM throughout.
For the compound `COc1nc(C#N)nc2c1C(C)N(C(=O)CC1CN(c3ccc(C4CC4)c(F)c3)C1)C2` (single isomer, unassigned) [Compound I-21, 6-(2-(1-(4-Cyclopropyl-3-fluorophenyl)azetidin-3-yl)acetyl)-4-methoxy-5-methyl-6,7-dihydro-5H-pyrrolo[3,4-d]pyrimidine-2-carbonitrile], the EC50 on human M4 receptor, at hM4 receptors and at rM4 receptors was ≥ 2000 nM in each case.
Turning to `COc1nc(C#N)nc2c1C(C)N(C(=O)CC1CN(c3ccc(C4CC4)c(F)c3)C1)C2` (single isomer, unassigned) [Compound I-22, 6-(2-(1-(4-Cyclopropyl-3-fluorophenyl)azetidin-3-yl)acetyl)-4-methoxy-5-methyl-6,7-dihydro-5H-pyrrolo[3,4-d]pyrimidine-2-carbonitrile], the EC50 at human M4 receptor, at hM4 receptors and at rM4 receptors was 100 to 500 nM each time.
For `COc1nc(C#N)nc2c1C(C)N(C(=O)CC1CN(c3ccc(C#N)cc3)C1)C2` (single isomer, unassigned) [Compound I-23, 6-(2-(1-(4-Cyanophenyl)azetidin-3-yl)acetyl)-4-methoxy-5-methyl-6,7-dihydro-5H-pyrrolo[3,4-d]pyrimidine-2-carbonitrile], the EC50 at human M4 receptor was ≤ 100 nM; at hM4 receptors it was ≤ 100 nM; at rM4 receptors it was 100 to 500 nM.
On to `COc1nc(C#N)nc2c1C(C)N(C(=O)CC1CN(c3cnnc(C(F)(F)F)c3)C1)C2` (single isomer, unassigned) [Compound I-24, 4-Methoxy-5-methyl-6-(2-(1-(6-(trifluoromethyl)pyridazin-4-yl)azetidin-3-yl)acetyl)-6,7-dihydro-5H-pyrrolo[3,4-d]pyrimidine-2-carbonitrile], for which the concentration giving a half-maximal response (EC50) on human M4 receptor, at hM4 receptors and on rM4 receptors was ≥ 2000 nM in each case.
Consider `COc1nc(C#N)nc2c1C(C)N(C(=O)CC1CN(c3cnnc(C(F)(F)F)c3)C1)C2` (single isomer, unassigned) [Compound I-25, 4-Methoxy-5-methyl-6-(2-(1-(6-(trifluoromethyl)pyridazin-4-yl)azetidin-3-yl)acetyl)-6,7-dihydro-5H-pyrrolo[3,4-d]pyrimidine-2-carbonitrile], for which the values for the half-maximal effective concentration (EC50) on human M4 receptor, at hM4 receptors and on rM4 receptors were 100 to 500 nM, 100 to 500 nM and 500 to 2000 nM, respectively.
Consider `COc1nc(C#N)nc2c1C(C)N(C(=O)CC1CN(c3cncnc3)C1)C2` (single isomer, unassigned) [Compound I-27, 4-Methoxy-5-methyl-6-(2-(1-(pyrimidin-5-yl)azetidin-3-yl)acetyl)-6,7-dihydro-5H-pyrrolo[3,4-d]pyrimidine-2-carbonitrile], for which the figures for the EC50 at human M4 receptor, at hM4 receptors and at rM4 receptors were ≥ 2000 nM, ≤ 100 nM and 500 to 2000 nM, respectively.
Taken in the same sequence, the figures for `COc1nc(C#N)nc2c1C(C)N(C(=O)CC1CN(c3ccnc(OC(F)F)c3)C1)C2` (single isomer, unassigned) [Compound I-28, 6-(2-(1-(2-(Difluoromethoxy)pyridin-4-yl)azetidin-3-yl)acetyl)-4-methoxy-5-methyl-6,7-dihydro-5H-pyrrolo[3,4-d]pyrimidine-2-carbonitrile] were ≤ 100 nM, ≤ 100 nM and 100 to 500 nM.
On the same counts, the results for `COc1nc(C#N)nc2c1C(C)N(C(=O)CC1CN(c3ccncc3F)C1)C2` (single isomer, unassigned) [Compound I-29, 6-(2-(1-(3-Fluoropyridin-4-yl)azetidin-3-yl)acetyl)-4-methoxy-5-methyl-6,7-dihydro-5H-pyrrolo[3,4-d]pyrimidine-2-carbonitrile] are 100 to 500 nM, 100 to 500 nM and 500 to 2000 nM.
